# Measured values published in PubChem BioAssay AID1963854 (Molecular Pharmacology Branch, DTP, NCI, 2024).
# pIC50: −log10 of the molar value.
# Test system: 186277-243-T-J2-PDC complex spheroid viability
# Assay: Anticancer human tumor 186277-243-T-J2-PDC patient-derived colon adenocarcinoma cell line growth inhibition [POLQ]
# Conditions: for pIC50: curve of first compound; for viability, T/C: stronger effect = lower value
# Procedure, shortened: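 Three-cell-type spheroids modelling solid tumor plus stroma served as the readout system; POL inhibitors were tested individually and in combination, concentration ranges set by clinical Cmax where known.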
# [1] = second compound 0.0316 µM, first compound 0.0316 µM
# [2] = second compound 0.0316 µM, first compound 0.1 µM
# [3] = second compound 0.0316 µM, first compound 0.316 µM
# [4] = second compound 0.0316 µM, first compound 1 µM
# [5] = second compound 0.0316 µM, first compound 3.16 µM
# [6] = second compound 0.0316 µM, first compound 10 µM
# [7] = second compound 0.1 µM, first compound 0.0316 µM
# [8] = second compound 0.1 µM, first compound 0.1 µM
# [9] = second compound 0.1 µM, first compound 0.316 µM
# [10] = second compound 0.1 µM, first compound 1 µM
# [11] = second compound 0.1 µM, first compound 3.16 µM
# [12] = second compound 0.1 µM, first compound 10 µM
# [13] = second compound 0.316 µM, first compound 0.0316 µM
# [14] = second compound 0.316 µM, first compound 0.1 µM
# [15] = second compound 0.316 µM, first compound 0.316 µM
# [16] = second compound 0.316 µM, first compound 1 µM
# [17] = second compound 0.316 µM, first compound 3.16 µM
# [18] = second compound 0.316 µM, first compound 10 µM
# [19] = second compound 1 µM, first compound 0.0316 µM
# [20] = second compound 1 µM, first compound 0.1 µM
# [21] = second compound 1 µM, first compound 0.316 µM
# [22] = second compound 1 µM, first compound 1 µM
# [23] = second compound 1 µM, first compound 3.16 µM
# [24] = second compound 1 µM, first compound 10 µM
# [25] = second compound 3.16 µM, first compound 0.0316 µM
# [26] = second compound 3.16 µM, first compound 0.1 µM
# [27] = second compound 3.16 µM, first compound 0.316 µM
# [28] = second compound 3.16 µM, first compound 1 µM
# [29] = second compound 3.16 µM, first compound 3.16 µM
# [30] = second compound 3.16 µM, first compound 10 µM
# [31] = second compound 10 µM, first compound 0.0316 µM
# [32] = second compound 10 µM, first compound 0.1 µM
# [33] = second compound 10 µM, first compound 0.316 µM
# [34] = second compound 10 µM, first compound 1 µM
# [35] = second compound 10 µM, first compound 3.16 µM
# [36] = second compound 10 µM, first compound 10 µM
# 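Further: spheroids exposed to compounds for seven days.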
# 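Wherever viability, T/C is given: 100% = DMSO vehicle control viability.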
compound,measurement,setting,value
C=CC(=O)N1CCN(c2nc(=O)n(-c3c(C)ccnc3C(C)C)c3nc(-c4c(O)cccc4F)c(F)cc23)C(C)C1 (stereo unspecified) + COC1C(OC(N)=O)C(O)C(Oc2ccc3c(O)c(NC(=O)c4ccc(O)c(CC=C(C)C)c4)c(=O)oc3c2C)OC1(C)C,pIC50,second compound 0.0316 µM,< 5.00
same,pIC50,second compound 0.1 µM,< 5.00
same,pIC50,second compound 0.316 µM,< 5.00
same,pIC50,second compound 1 µM,< 5.00
same,pIC50,second compound 3.16 µM,< 5.00
same,pIC50,second compound 10 µM,< 5.00
same,"viability, T/C",[1],94%
same,"viability, T/C",[2],88.7%
same,"viability, T/C",[3],111%
same,"viability, T/C",[4],88.2%
same,"viability, T/C",[5],102%
same,"viability, T/C",[6],85.9%
same,"viability, T/C",[7],90.2%
same,"viability, T/C",[8],91.8%
same,"viability, T/C",[9],98.3%
same,"viability, T/C",[10],90.2%
same,"viability, T/C",[11],87%
same,"viability, T/C",[12],97%
same,"viability, T/C",[13],98%
same,"viability, T/C",[14],102%
same,"viability, T/C",[15],91.5%
same,"viability, T/C",[16],104%
same,"viability, T/C",[17],110%
same,"viability, T/C",[18],98.1%
same,"viability, T/C",[19],97.3%
same,"viability, T/C",[20],93.9%
same,"viability, T/C",[21],101%
same,"viability, T/C",[22],90.7%
same,"viability, T/C",[23],96.6%
same,"viability, T/C",[24],97.7%
same,"viability, T/C",[25],93.5%
same,"viability, T/C",[26],94.5%
same,"viability, T/C",[27],99.3%
same,"viability, T/C",[28],101%
same,"viability, T/C",[29],87.5%
same,"viability, T/C",[30],87.3%
same,"viability, T/C",[31],92.9%
same,"viability, T/C",[32],104%
same,"viability, T/C",[33],92.3%
same,"viability, T/C",[34],84.5%
same,"viability, T/C",[35],116%
same,"viability, T/C",[36],83.3%
CC(C)n1c(=O)n(C)c2cnc3cc(F)c(-c4ccc(OCCCN5CCCCC5)nc4)cc3c21 + COC1C(OC(N)=O)C(O)C(Oc2ccc3c(O)c(NC(=O)c4ccc(O)c(CC=C(C)C)c4)c(=O)oc3c2C)OC1(C)C,pIC50,second compound 0.0316 µM,< 5.00
same,pIC50,second compound 0.1 µM,< 5.00
same,pIC50,second compound 0.316 µM,< 5.00
same,pIC50,second compound 1 µM,< 5.00
same,pIC50,second compound 3.16 µM,< 5.00
same,pIC50,second compound 10 µM,< 5.00
same,"viability, T/C",[1],104%
same,"viability, T/C",[2],97.4%
same,"viability, T/C",[3],98.1%
same,"viability, T/C",[4],93.2%
same,"viability, T/C",[5],94.3%
same,"viability, T/C",[6],116%
same,"viability, T/C",[7],111%
same,"viability, T/C",[8],87.2%
same,"viability, T/C",[9],103%
same,"viability, T/C",[10],101%
same,"viability, T/C",[11],107%
same,"viability, T/C",[12],92.2%
same,"viability, T/C",[13],99.1%
same,"viability, T/C",[14],98.3%
same,"viability, T/C",[15],96.1%
same,"viability, T/C",[16],97.9%
same,"viability, T/C",[17],114%
same,"viability, T/C",[18],108%
same,"viability, T/C",[19],110%
same,"viability, T/C",[20],93.7%
same,"viability, T/C",[21],86.6%
same,"viability, T/C",[22],107%
same,"viability, T/C",[23],101%
same,"viability, T/C",[24],101%
same,"viability, T/C",[25],98.2%
same,"viability, T/C",[26],95.2%
same,"viability, T/C",[27],105%
same,"viability, T/C",[28],106%
same,"viability, T/C",[29],92.5%
same,"viability, T/C",[30],102%
same,"viability, T/C",[31],102%
same,"viability, T/C",[32],109%
same,"viability, T/C",[33],115%
same,"viability, T/C",[34],115%
same,"viability, T/C",[35],108%
same,"viability, T/C",[36],89.8%
CC1COCCN1c1cc(C2(S(C)(=N)=O)CC2)nc(-c2ccnc3[nH]ccc23)n1 (stereo unspecified) + COC1C(OC(N)=O)C(O)C(Oc2ccc3c(O)c(NC(=O)c4ccc(O)c(CC=C(C)C)c4)c(=O)oc3c2C)OC1(C)C,pIC50,second compound 0.0316 µM,6.10
same,pIC50,second compound 0.1 µM,6.09
same,pIC50,second compound 0.316 µM,6.10
same,pIC50,second compound 1 µM,6.09
same,pIC50,second compound 3.16 µM,6.10
same,pIC50,second compound 10 µM,6.11
same,"viability, T/C",[1],111%
same,"viability, T/C",[2],96.6%
same,"viability, T/C",[3],117%
same,"viability, T/C",[4],35.3%
same,"viability, T/C",[5],5.81%
same,"viability, T/C",[6],4.54%
same,"viability, T/C",[7],98%
same,"viability, T/C",[8],107%
same,"viability, T/C",[9],111%
same,"viability, T/C",[10],38.1%
same,"viability, T/C",[11],6.12%
same,"viability, T/C",[12],4.78%
same,"viability, T/C",[13],97.5%
same,"viability, T/C",[14],111%
same,"viability, T/C",[15],104%
same,"viability, T/C",[16],36.9%
same,"viability, T/C",[17],6.74%
same,"viability, T/C",[18],4.71%
same,"viability, T/C",[19],95.8%
same,"viability, T/C",[20],98.2%
same,"viability, T/C",[21],105%
same,"viability, T/C",[22],39.8%
same,"viability, T/C",[23],6.98%
same,"viability, T/C",[24],4.23%
same,"viability, T/C",[25],94.8%
same,"viability, T/C",[26],100%
same,"viability, T/C",[27],104%
same,"viability, T/C",[28],37.1%
same,"viability, T/C",[29],6.45%
same,"viability, T/C",[30],5.04%
same,"viability, T/C",[31],108%
same,"viability, T/C",[32],104%
same,"viability, T/C",[33],106%
same,"viability, T/C",[34],34.1%
same,"viability, T/C",[35],7.67%
same,"viability, T/C",[36],5.44%
